Counter-ions that a name gives are not always drawn. Like-named read-outs stand apart in the source and are kept apart here.
Assays:
human mTOR = human mTOR (Homo sapiens (Human), UniProt P42345); test: mTOR kinase assay (TR-FRET, for comparative purposes); assay type: biochemical; settings: for inhibition at 1 µM: read-out: mTOR % inhibition @ 1 μM, 1 μM test compound, 40 μM ATP, mean values; for mTOR % inhibition @ 1 μM: 1 μM test compound, 40 μM ATP, mean values
Protocol: mTOR inhibitory activity of the compounds of the present invention was quantified employing the TR-FRET based mTOR assay as described in the following paragraphs:
Test compounds were dissolved in DMSO to generate 10 mM stock solutions. These solutions were first 10-fold diluted by 100% DMSO to get 1 mM solutions in 100% DMSO, then 100-fold diluted by 50% DMSO to get 10 μM solutions in 50% DMSO.
(final concentration in the 10 μl assay volume=1 nM) in FRET buffer.
For this, the fluorescence emissions at 495 nm and 520 nm after excitation at 340 nm was measured in an Envision 2104 multilabel reader (Perkin-Elmer).

human FGFR-1 = human FGFR-1 (Homo sapiens, UniProt P11362); test: FGFR-1 high ATP kinase assay (TR-FRET)
[1] = system: Human umbilical vein endothelial cells (HUVEC); test: Inhibition of growth factor-mediated cell proliferation (hFGF-2); assay type: cell-based; settings: 72 h exposure, hFGF-2 stimulated, from averaged pIC50 values
Protocol: Human umbilical vein endothelial cells (HUVEC) were obtained from Cellsystems (FC-0003) and grown in Vasculife VEGF complete medium (Cellsystems, LL-1020) containing 2% fetal bovine serum (FBS) at 37° C. and 5% CO2. The cells were used for proliferation assays up to passage 7.
The HUVEC cells were harvested using accutase (PAA, L11-007) and seeded in columns 2 to 12 of 96-well plates (Falcon MICROTEST tissue culture plate 96-well flat bottom, BD 353075, or μCLEAR-PLATE, black, 96-well, Greiner Bio-One, No. 655090) at a cell density of 2500 cells/well in 100 μl Vasculife VEGF complete medium with column 1 remaining empty as blank. Cells were allowed to incubate at 37° C. and 5% CO2 for at least 6 h. Then, the cells were washed once with PBS and starved overnight in Vasculife basal medium (Cellsystems, LM-0002) containing heparin, ascorbate and L-glutamine (components of the Vasculife Life Factors Kit, Cellsystems, LL-1020) as well as 0.2% FBS.
After about 18 h, the starving medium was discarded, and the cells were exposed for 72 h to 9 consecutive log or half-log concentrations of test compound in the range of 10 pM to 30 μM and to 5, 10 or 20 ng/ml hFGF-2 (recombinant human FGF basic, R&D Systems, 233-FB) in 100 μl starving medium. 10 mM stock solutions of test compounds in DMSO were diluted to 200× final concentration in DMSO resulting in a final DMSO concentration of 0.5% in all wells. Controls consisted of cells grown in starving medium only and of cells grown in hFGF-2 containing starving medium with 0.5% DMSO. To determine cell proliferation, 5 μl Alamar Blue solution (Biosource, DAL1100) was added to each well (1:20 dilution), and the cells were allowed to incubate for further 4 h at 37° C. and 5% CO2 before measuring fluorescence (ex. 535 nm, em. 595 nm) with a Spectrafluor Plus Tecan plate reader (XFLUOR4 version 4.20). In some experiments, an ATP Determination Kit (BIAFFIN GmbH, LBR-T100) was used according to the manufacturer's instructions. In each experiment, samples were assayed in triplicate, and the standard deviations were determined GraphPad Prism 5 software was used to analyze the data and to obtain IC50 values. All test compounds were assayed 2 to 10 times in independent experiments and similar results were obtained.

human FGFR-3 = human FGFR-3 (Homo sapiens (Human), UniProt P22607); test: FGFR-3 kinase assay (TR-FRET); assay type: biochemical; settings: 10 μM ATP, 15 min pre-incubation with enzyme
Chain of human FGFR-3 (P22607 397-806): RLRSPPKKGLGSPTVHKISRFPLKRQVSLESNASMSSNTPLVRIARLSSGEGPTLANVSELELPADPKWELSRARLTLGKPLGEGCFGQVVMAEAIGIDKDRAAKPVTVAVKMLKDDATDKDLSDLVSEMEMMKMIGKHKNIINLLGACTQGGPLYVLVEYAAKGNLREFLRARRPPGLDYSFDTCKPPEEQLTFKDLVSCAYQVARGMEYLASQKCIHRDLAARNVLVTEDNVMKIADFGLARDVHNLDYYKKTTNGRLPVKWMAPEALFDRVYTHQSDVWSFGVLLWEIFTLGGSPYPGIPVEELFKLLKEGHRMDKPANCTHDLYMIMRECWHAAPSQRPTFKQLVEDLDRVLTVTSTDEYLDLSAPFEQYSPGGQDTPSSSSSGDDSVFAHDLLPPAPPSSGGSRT

Chain of human mTOR (P42345 1360-2549): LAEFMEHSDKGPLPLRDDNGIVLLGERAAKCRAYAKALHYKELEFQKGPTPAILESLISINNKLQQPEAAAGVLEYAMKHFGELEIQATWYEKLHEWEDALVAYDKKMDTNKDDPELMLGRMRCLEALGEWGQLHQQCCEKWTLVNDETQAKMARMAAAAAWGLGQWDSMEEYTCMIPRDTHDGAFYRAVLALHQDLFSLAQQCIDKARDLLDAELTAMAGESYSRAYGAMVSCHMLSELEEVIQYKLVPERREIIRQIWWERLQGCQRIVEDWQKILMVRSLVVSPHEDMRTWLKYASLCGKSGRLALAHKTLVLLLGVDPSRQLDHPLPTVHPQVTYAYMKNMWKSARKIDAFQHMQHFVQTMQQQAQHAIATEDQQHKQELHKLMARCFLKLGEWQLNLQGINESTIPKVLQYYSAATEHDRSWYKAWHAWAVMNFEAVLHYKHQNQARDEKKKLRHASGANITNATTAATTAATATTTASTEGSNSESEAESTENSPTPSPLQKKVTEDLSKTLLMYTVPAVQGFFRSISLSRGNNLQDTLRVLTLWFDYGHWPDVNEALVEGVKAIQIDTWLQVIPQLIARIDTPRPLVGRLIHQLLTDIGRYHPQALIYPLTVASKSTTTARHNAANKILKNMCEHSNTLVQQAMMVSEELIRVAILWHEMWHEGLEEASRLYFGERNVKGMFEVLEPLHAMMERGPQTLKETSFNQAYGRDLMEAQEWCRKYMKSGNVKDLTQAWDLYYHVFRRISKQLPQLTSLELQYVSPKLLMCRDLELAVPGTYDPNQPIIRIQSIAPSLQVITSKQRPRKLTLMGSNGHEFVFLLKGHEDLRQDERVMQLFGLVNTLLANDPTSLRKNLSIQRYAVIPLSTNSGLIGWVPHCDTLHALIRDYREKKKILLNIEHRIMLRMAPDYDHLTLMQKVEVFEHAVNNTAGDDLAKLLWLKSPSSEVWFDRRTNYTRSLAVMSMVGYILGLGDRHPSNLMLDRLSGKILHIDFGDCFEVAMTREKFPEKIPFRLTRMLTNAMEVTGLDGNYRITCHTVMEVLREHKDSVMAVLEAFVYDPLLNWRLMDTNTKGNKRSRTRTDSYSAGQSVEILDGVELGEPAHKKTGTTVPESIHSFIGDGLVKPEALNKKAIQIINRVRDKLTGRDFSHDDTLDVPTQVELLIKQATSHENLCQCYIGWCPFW
Chain of human FGFR-1 (P11362 22-822 limits assumed): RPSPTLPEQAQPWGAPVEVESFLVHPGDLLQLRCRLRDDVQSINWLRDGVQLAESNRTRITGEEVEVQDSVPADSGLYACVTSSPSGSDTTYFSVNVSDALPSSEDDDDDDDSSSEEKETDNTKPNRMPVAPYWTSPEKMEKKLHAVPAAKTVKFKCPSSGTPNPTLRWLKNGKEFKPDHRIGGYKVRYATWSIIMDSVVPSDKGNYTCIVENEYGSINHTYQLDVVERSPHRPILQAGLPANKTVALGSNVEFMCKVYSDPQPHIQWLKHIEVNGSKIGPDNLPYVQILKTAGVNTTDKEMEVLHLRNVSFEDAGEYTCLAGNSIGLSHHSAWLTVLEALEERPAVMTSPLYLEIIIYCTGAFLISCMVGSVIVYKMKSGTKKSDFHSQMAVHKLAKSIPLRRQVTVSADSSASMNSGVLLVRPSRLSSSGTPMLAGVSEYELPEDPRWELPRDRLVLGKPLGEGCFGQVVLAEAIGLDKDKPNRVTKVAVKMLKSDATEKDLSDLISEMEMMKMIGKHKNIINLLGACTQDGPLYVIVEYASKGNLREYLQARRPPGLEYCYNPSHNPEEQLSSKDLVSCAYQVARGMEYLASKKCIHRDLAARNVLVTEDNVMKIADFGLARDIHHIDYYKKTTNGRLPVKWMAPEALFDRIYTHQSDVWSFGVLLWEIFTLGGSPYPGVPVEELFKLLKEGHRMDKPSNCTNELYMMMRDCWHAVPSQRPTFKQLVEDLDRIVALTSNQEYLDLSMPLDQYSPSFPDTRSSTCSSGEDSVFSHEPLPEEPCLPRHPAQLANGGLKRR

| Compound | inhibition at 1 µM (human mTOR) | IC50 (human FGFR-1) | IC50 ([1]; Homo sapiens, HUVEC, 72 h) | IC50 ([1]; trihydrochloride hydrate) | mTOR % inhibition @ 1 μM (human mTOR) | IC50 (human FGFR-1; read-out: FGFR-1 (high ATP) IC50, 2 mM ATP, 15 min pre-incubation with enzyme) | IC50 [1] | IC50 (human FGFR-3) |
| --- | --- | --- | --- | --- | --- | --- | --- | --- |
| COc1cc(C)cc2cc(-c3cc(CN4CCNC(C(N)=O)C4)n4ncnc(N)c34)sc12 (racemic) [Example 7, rac-4-{[4-Amino-5-(7-methoxy-5-methyl-1-benzothiophen-2-yl)pyrrolo[2,1-f][1,2,4]triazin-7-yl]-methyl}piperazine-2-carboxamide trihydrochloride] | 43.7% | 7.8 nM | 44 nM | – | – | – | – | – |
| COc1cc(C)cc2cc(-c3cc(CN4CCNCC4)n4ncnc(N)c34)sc12 [Example 1, 5-(7-Methoxy-5-methyl-1-benzothiophen-2-yl)-7-(piperazin-1-ylmethyl)pyrrolo[2,1-f][1,2,4]-triazin-4-amine trihydrochloride hydrate] | 17.6% | 9.9 nM | – | 36 nM | – | – | – | – |
| COc1cc(C)cc2cc(-c3cc(CN4CCNCC4)n4ncnc(N)c34)sc12 [Example 2, 5-(7-Methoxy-5-methyl-1-benzothiophen-2-yl)-7-(piperazin-1-ylmethyl)pyrrolo[2,1-f][1,2,4]-triazin-4-amine] | – | – | – | – | 22.8% | 20.1 nM | 127 nM | – |
| COc1cc(C)cc2cc(-c3cc(CN4CCNC(=O)C4)n4ncnc(N)c34)sc12 [Example 8, 4-{[4-Amino-5-(7-methoxy-5-methyl-1-benzothiophen-2-yl)pyrrolo[2,1-f][1,2,4]triazin-7-yl]-methyl}piperazin-2-one dihydrochloride] | 45.9% | 29 nM | 370 nM | – | – | – | – | – |
| COc1cc(C)cc2cc(-c3cc(CN4CC[C@@H](O)C4)n4ncnc(N)c34)sc12 [Example 84] | 15.3% | 38.9 nM | – | – | – | – | – | 39.1 nM |
| COc1cc(C)cc2cc(-c3cc(CN[C@@H](C)C(N)=O)n4ncnc(N)c34)sc12 [Example 85] | 28.2% | 45.4 nM | – | – | – | – | – | 22.1 nM |
| COc1cc(C)cc2cc(-c3cc(CN[C@H]4CC[C@@H](N(C)C)CC4)n4ncnc(N)c34)sc12 [Example 87] | 21.9% | 13.2 nM | – | – | – | – | – | 29.1 nM |
| COc1cc(C)cc2cc(-c3cc(CN4CCC(O)CC4)n4ncnc(N)c34)sc12 [Example 88] | 29.5% | 15.7 nM | – | – | – | – | – | 21.3 nM |
| COc1cc(C)cc2cc(-c3cc(CN4CCCN(C)CC4)n4ncnc(N)c34)sc12 [Example 89] | 28.7% | 24.9 nM | – | – | – | – | – | 28.2 nM |
| COc1cc(C)cc2cc(-c3cc(CN4CC[C@@H](N(C)C)C4)n4ncnc(N)c34)sc12 [Example 90] | 22.7% | 26 nM | – | – | – | – | – | 30.3 nM |
| COc1cc(C)cc2cc(-c3cc(CN4CC(O)C4)n4ncnc(N)c34)sc12 [Example 91] | 17.7% | 36.9 nM | – | – | – | – | – | 23.9 nM |
| COc1cc(C)cc2cc(-c3cc(CN[C@@H](CC(N)=O)C(=O)O)n4ncnc(N)c34)sc12 [Example 92] | 19.9% | 46.2 nM | – | – | – | – | – | 11.7 nM |
| COc1cc(C)cc2cc(-c3cc(C(=O)N4CC[C@](C)(N)C4)n4ncnc(N)c34)sc12 [Example 97, [4-Amino-5-(7-methoxy-5-methyl-1-benzothiophen-2-yl)pyrrolo[2,1-f][1,2,4]triazin-7-yl][(3S)-3-amino-3-methylpyrrolidin-1-yl]methanone dihydrochloride] | 16.7% | 4.7 nM | – | – | – | – | – | 9.9 nM |
| COc1cc(C)cc2cc(-c3cc(C(=O)N4CCC(N(C)C)C4)n4ncnc(N)c34)sc12 (stereo not drawn) [Example 100] | 15.9% | 20.7 nM | – | – | – | – | – | 35.9 nM |
| COc1cc(C)cc2cc(-c3cc(C(=O)N4CCC(O)CC4)n4ncnc(N)c34)sc12 [Example 101] | 24.9% | 29.8 nM | – | – | – | – | – | 29.1 nM |
| COc1cc(C)cc2cc(-c3cc(C(=O)N4CCNC(C(N)=O)C4)n4ncnc(N)c34)sc12 (stereo not drawn) [Example 102] | 12.8% | 48.8 nM | – | – | – | – | – | 89.6 nM |
| COc1cc(C)cc2cc(-c3cc(C(=O)N4CCNC(C)(C)C4)n4ncnc(N)c34)sc12 [Example 103] | 9.2% | 51.7 nM | – | – | – | – | – | 114 nM |

| Compound | inhibition at 1 µM (human mTOR) | IC50 (human FGFR-1) | IC50 ([1]; Homo sapiens, HUVEC, 72 h) | IC50 ([1]; trihydrochloride hydrate) | mTOR % inhibition @ 1 μM (human mTOR) | IC50 (human FGFR-1; read-out: FGFR-1 (high ATP) IC50, 2 mM ATP, 15 min pre-incubation with enzyme) | IC50 [1] | IC50 (human FGFR-3) |
| --- | --- | --- | --- | --- | --- | --- | --- | --- |
| COc1cc(C)cc2cc(-c3cc(C(=O)N4CCC[C@@H](N)C4)n4ncnc(N)c34)sc12 [Example 104] | 17.9% | 28.1 nM | – | – | – | – | – | 14.6 nM |
| COc1cc(C)cc2cc(-c3cc(COCCN4CCCC4)n4ncnc(N)c34)sc12 [Example 107, 5-(7-Methoxy-5-methyl-1-benzothiophen-2-yl)-7-{[2-(pyrrolidin-1-yl)ethoxy]methyl}pyrrolo-[2,1-f][1,2,4]triazin-4-amine hydrochloride] | 15% | 57.3 nM | – | – | – | – | – | 46.1 nM |
| COc1cc(C)cc2cc(-c3cc(COC[C@@H]4CCCN4)n4ncnc(N)c34)sc12 [Example 109] | – | 65.6 nM | – | – | no inhib. effect detect. | – | – | 37.1 nM |
| COc1cc(C)cc2cc(-c3cc(COC[C@H]4CCCN4)n4ncnc(N)c34)sc12 [Example 110] | 4.9% | 51.6 nM | – | – | – | – | – | 57.4 nM |
| COc1cc(C)cc2cc(-c3cc(COC[C@H](C)N)n4ncnc(N)c34)sc12 [Example 111] | 1.1% | 82.2 nM | – | – | – | – | – | 85.6 nM |
| CCC(N)COCc1cc(-c2cc3cc(C)cc(OC)c3s2)c2c(N)ncnn12 (stereo not drawn) [Example 112] | 8.8% | 67.2 nM | – | – | – | – | – | 102 nM |
| COc1cc(C)cc2cc(-c3cc(COC4CCOC4)n4ncnc(N)c34)sc12 (stereo not drawn) [Example 113] | 29.7% | 83.1 nM | – | – | – | – | – | 64.7 nM |
| CCNC(=O)COCc1cc(-c2cc3cc(C)cc(OC)c3s2)c2c(N)ncnn12 [Example 114] | 27.7% | 65.3 nM | – | – | – | – | – | 30.5 nM |
| COc1cc(C)cc2cc(-c3cc(COCCNC(C)C)n4ncnc(N)c34)sc12 [Example 115] | 6.5% | 78.6 nM | – | – | – | – | – | 63.9 nM |
| COc1cc(C)cc2cc(-c3cc(COCCN4CCOC4=O)n4ncnc(N)c34)sc12 [Example 116] | 28% | 90.3 nM | – | – | – | – | – | 71.5 nM |
| CNCCOCc1cc(-c2cc3cc(C)cc(OC)c3s2)c2c(N)ncnn12 [Example 117] | 0.3% | 36.1 nM | – | – | – | – | – | 34.8 nM |
| COc1cc(C)cc2cc(-c3cc(CO[C@@H]4CCNC4)n4ncnc(N)c34)sc12 [Example 118] | 18.4% | 26.1 nM | – | – | – | – | – | 45 nM |
| COc1cc(C)cc2cc(-c3cc(COCC(C)N)n4ncnc(N)c34)sc12 (stereo not drawn) [Example 119] | 25.1% | 26.7 nM | – | – | – | – | – | 29.7 nM |
| COc1cc(C)cc2cc(-c3cc(COCCN)n4ncnc(N)c34)sc12 [Example 120] | 14.8% | 50.8 nM | – | – | – | – | – | 53.9 nM |
| CCCc1nccn1Cc1cc(-c2cc3cc(C)cc(OC)c3s2)c2c(N)ncnn12 [Example 121] | 26.8% | 33.3 nM | – | – | – | – | – | 65.9 nM |
| COc1cc(C)cc2cc(-c3cc(Cn4ccnc4C#N)n4ncnc(N)c34)sc12 [Example 122] | 35.7% | 71.8 nM | – | – | – | – | – | 65.6 nM |
| COc1cc(C)cc2cc(-c3cc(Cn4cc(C)nc4C)n4ncnc(N)c34)sc12 [Example 123] | 47.8% | 28.3 nM | – | – | – | – | – | 58 nM |
